# Earlier results as cited in patent US20240342131A1, “Multivitamin for Cystic Fibrosis Patients Undergoing Cystic Fibrosis Transmembrance Conductance Regulator Gene Modulator Therapy” (priority 2021, published 2024).
# Conditions: high doses
compound,measurement,value
O=C1O[C@H]([C@@H](O)CO)C(O)=C1O [vitamin C],side effect,secretory diarrhea
